Measurements published in PMC10545790.
≈ marks a conversion by molar mass, not a printed value. Where “and” joins values, the source holds several entries; their conditions need not be identical. Equal values may be shown once. Entries after “also recorded” stand apart in the source; their conditions may differ. Read-outs that look alike come from different tables or passages of the source.

How the values were obtained:
[1] = Kinetic solubility in phosphate-buffered saline, pH 7.4; conditions: 25 °C, pH 7.4, aqueous buffer, kinetic from dmso stock
[2] = Metabolic stability in human liver microsomes; conditions: both, human, liver microsomes (pooled); for k el at 2 µM / microsomal CLint at 2 µM: pH 7.4; for remaining at 0.25 h, 2 µM: 15 min; for half-life at 2 µM: pH 7.4, t1/2: half-time of a metabolic decomposition, human liver microsomes, 2 μM compound, NADPH, 37 °C
[3] = tested on: human liver microsomes; assay: Metabolic stability in human liver microsomes; conditions: human liver microsomes; for t1/2: half-time of a metabolic decomposition: 2 μM compound, NADPH, 37 °C
[4] = physchem; conditions: pH 7.4, logD (7.4): experimental distribution coefficient in n-octanol/phosphate-buffered saline
[5] = molecular target: ABL1 kinase (Homo sapiens, UniProt P00519); conditions: for inhibitory effect on the catalytic activity of ABL1 kinase (in words): ADP-Glo Kinase Assay, 12 concentration points; for Luminescence, Raw Data (LUM): ADP-Glo
[6] = pH 7.4, % Remaining without cofactor, Mean of 2, human liver microsomes, NADPH-cofactor system substituted with phosphate buffer
[7] = pH 7.4, % Remaining, Mean of 2, human liver microsomes with NADPH
[8] = 1st run, plate ABL1_CpdsTitr_Read1, single wells, compound 15 nM
[9] = 1st run, plate ABL1_CpdsTitr_Read1, single wells, compound 29 nM
[10] = 1st run, plate ABL1_CpdsTitr_Read1, single wells, compound 59 nM
[11] = 1st run, plate ABL1_CpdsTitr_Read1, single wells, compound 117 nM
[12] = 1st run, plate ABL1_CpdsTitr_Read1, single wells, compound 234 nM
[13] = 1st run, plate ABL1_CpdsTitr_Read1, single wells, compound 469 nM
[14] = 1st run, plate ABL1_CpdsTitr_Read1, single wells, compound 938 nM
[15] = 1st run, plate ABL1_CpdsTitr_Read1, single wells, compound 1500 nM
[16] = 1st run, plate ABL1_CpdsTitr_Read1, single wells, compound 1875 nM
[17] = 1st run, plate ABL1_CpdsTitr_Read1, single wells, compound 3000 nM
[18] = 1st run, plate ABL1_CpdsTitr_Read1, single wells, compound 3750 nM
[19] = 1st run, plate ABL1_CpdsTitr_Read1, single wells, compound 7500 nM
[20] = 2nd run, plate ABL1_CpdsTitr2_Read1, single wells, compound 15 nM
[21] = 2nd run, plate ABL1_CpdsTitr2_Read1, single wells, compound 59 nM
[22] = 2nd run, plate ABL1_CpdsTitr2_Read1, single wells, compound 117 nM
[23] = 2nd run, plate ABL1_CpdsTitr2_Read1, single wells, compound 234 nM
[24] = 2nd run, plate ABL1_CpdsTitr2_Read1, single wells, compound 469 nM
[25] = 2nd run, plate ABL1_CpdsTitr2_Read1, single wells, compound 938 nM
[26] = 2nd run, plate ABL1_CpdsTitr2_Read1, single wells, compound 1500 nM
[27] = 2nd run, plate ABL1_CpdsTitr2_Read1, single wells, compound 1875 nM
[28] = 2nd run, plate ABL1_CpdsTitr2_Read1, single wells, compound 3000 nM
[29] = 2nd run, plate ABL1_CpdsTitr2_Read1, single wells, compound 3750 nM
[30] = 2nd run, plate ABL1_CpdsTitr2_Read1, single wells, compound 7500 nM

Sequence of ABL1 kinase (P00519 whole entry): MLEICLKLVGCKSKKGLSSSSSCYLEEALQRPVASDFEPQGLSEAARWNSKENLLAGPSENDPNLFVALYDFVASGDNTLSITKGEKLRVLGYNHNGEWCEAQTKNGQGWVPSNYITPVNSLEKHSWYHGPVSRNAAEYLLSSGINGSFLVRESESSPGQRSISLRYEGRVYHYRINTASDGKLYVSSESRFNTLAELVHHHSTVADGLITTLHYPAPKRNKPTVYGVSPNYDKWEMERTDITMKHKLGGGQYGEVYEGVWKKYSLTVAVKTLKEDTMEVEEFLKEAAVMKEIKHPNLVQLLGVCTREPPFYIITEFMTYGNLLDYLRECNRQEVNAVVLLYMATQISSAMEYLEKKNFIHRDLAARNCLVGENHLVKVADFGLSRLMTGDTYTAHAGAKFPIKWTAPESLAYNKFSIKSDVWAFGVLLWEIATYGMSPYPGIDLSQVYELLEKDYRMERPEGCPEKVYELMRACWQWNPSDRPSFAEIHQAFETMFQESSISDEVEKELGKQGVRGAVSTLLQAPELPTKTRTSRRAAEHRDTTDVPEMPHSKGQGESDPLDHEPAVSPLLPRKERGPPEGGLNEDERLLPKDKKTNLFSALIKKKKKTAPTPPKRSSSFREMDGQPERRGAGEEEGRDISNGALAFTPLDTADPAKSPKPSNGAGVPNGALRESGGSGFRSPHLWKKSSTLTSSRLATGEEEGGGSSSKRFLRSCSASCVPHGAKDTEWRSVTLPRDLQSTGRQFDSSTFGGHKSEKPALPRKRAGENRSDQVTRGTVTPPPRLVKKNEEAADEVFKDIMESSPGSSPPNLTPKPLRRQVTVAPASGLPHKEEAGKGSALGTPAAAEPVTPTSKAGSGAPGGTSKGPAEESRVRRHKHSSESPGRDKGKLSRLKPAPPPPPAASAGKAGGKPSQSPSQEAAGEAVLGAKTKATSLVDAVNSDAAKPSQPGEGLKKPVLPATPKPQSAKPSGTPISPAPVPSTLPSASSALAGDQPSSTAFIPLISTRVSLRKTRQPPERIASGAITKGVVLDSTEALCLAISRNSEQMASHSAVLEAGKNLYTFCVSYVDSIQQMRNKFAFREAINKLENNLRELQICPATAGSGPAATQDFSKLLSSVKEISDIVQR

| SMILES | solubility kinetic at 2 h [1] | k el at 2 µM [2] | microsomal CLint at 2 µM [2] | remaining at 40 min, 2 µM [2, 6] | remaining at 7 min, 2 µM [2, 7] | remaining at 0.25 h, 2 µM [2, 7] | remaining at 25 min, 2 µM [2, 7] | remaining at 40 min, 2 µM [2, 7] | half-life at 2 µM [2] | CLint [3] | t1/2: half-time of a metabolic decomposition [3] | logD [4] | inhibitory effect on the catalytic activity of ABL1 kinase (in words) [5] | Luminescence, Raw Data (LUM) [5, 8] | Luminescence, Raw Data (LUM) [5, 9] | Luminescence, Raw Data (LUM) [5, 10] | Luminescence, Raw Data (LUM) [5, 11] | Luminescence, Raw Data (LUM) [5, 12] | Luminescence, Raw Data (LUM) [5, 13] | Luminescence, Raw Data (LUM) [5, 14] | also measured |
| --- | --- | --- | --- | --- | --- | --- | --- | --- | --- | --- | --- | --- | --- | --- | --- | --- | --- | --- | --- | --- | --- |
| Cc1ccc(NC(=O)C23CCC(CN4CCN(C)CC4)(CC2)OC3)cc1Nc1nccc(-c2cccnc2)n1 [Compound 85] | 389 µM (≈ 205 µg/mL) | 0.000133 s⁻¹ | 19 µL/min/mg | 118% | 101% | 98% | 90% | 73% | 1.45 h | 19 | 1.45 h | 1.8 | did not observe any significant inhibitory effect; also recorded: inactive | 1058 and 1113 and 1791 and 1922 | 1154 and 1300 and 1938 and 1968 | 1819 and 1993 and 1840 and 1873 | 2012 and 2091 and 2063 and 1940 | 1243 and 1296 and 1230 and 1333 | 1542 and 1412 and 1342 and 1622 | 1188 and 1448 and 1337 and 1335 | Luminescence, Raw Data (LUM) [5, 15]: 1805 and 977 and 1232 and 1070; Luminescence, Raw Data (LUM) [5, 16]: 1156 and 1302 and 1289 and 1256; Luminescence, Raw Data (LUM) [5, 17]: 1327 and 1543 and 1534 and 1388; Luminescence, Raw Data (LUM) [5, 18]: 1381 and 1311 and 1134; Luminescence, Raw Data (LUM) [5, 19]: 1269 and 1270 and 1321 and 1071; Luminescence, Raw Data (LUM) [5, 20]: 6198 and 6465 and 5917 and 6372; Luminescence, Raw Data (LUM) ([5]; 2nd run, plate ABL1_CpdsTitr2_Read1, single wells, compound 29 nM): 7090 and 6257 and 6692 and 6143; Luminescence, Raw Data (LUM) [5, 21]: 6364 and 6701 and 5655 and 6486; Luminescence, Raw Data (LUM) [5, 22]: 6190 and 6555 and 5494 and 6585; Luminescence, Raw Data (LUM) [5, 23]: 5219 and 5282 and 5107 and 4913; Luminescence, Raw Data (LUM) [5, 24]: 6324 and 5692 and 5791 and 5812; Luminescence, Raw Data (LUM) [5, 25]: 6138 and 6238 and 6011 and 5496; Luminescence, Raw Data (LUM) [5, 26]: 5294 and 5538 and 5113 and 5062; Luminescence, Raw Data (LUM) [5, 27]: 6881 and 6876 and 6366 and 6488; Luminescence, Raw Data (LUM) [5, 28]: 4805 and 5280 and 4474 and 4682; Luminescence, Raw Data (LUM) [5, 29]: 6509 and 5880 and 6068 and 5810; Luminescence, Raw Data (LUM) [5, 30]: 6480 and 6469 and 6139 and 5760 |
| Cc1ccc(NC(=O)C23CCC(CN4CCN(C)CC4)(CC2)CC3)cc1Nc1nccc(-c2cccnc2)n1 [Compound 86] | 113 µM (≈ 59.4 µg/mL) | ~0.0001 s⁻¹ | 16 µL/min/mg | 106% | 100% | 96% | 81% | 81% | 1.78 h | 16 | ~1.785 h | 2.7 | did not observe any significant inhibitory effect; also recorded: inactive | 2281 and 2169 | 2495 and 2464 | 2134 and 2384 | 2291 and 2227 | 1059 and 1099 | 1247 and 1531 | 1347 and 1294 | Luminescence, Raw Data (LUM) [5, 15]: 981 and 1352; Luminescence, Raw Data (LUM) [5, 16]: 1222 and 1248; Luminescence, Raw Data (LUM) [5, 17]: 1174 and 1245; Luminescence, Raw Data (LUM) [5, 18]: 1755 and 1091; Luminescence, Raw Data (LUM) [5, 19]: 1238 and 1673; Luminescence, Raw Data (LUM) [5, 20]: 4011 and 3702 and 3072 and 2792; Luminescence, Raw Data (LUM) [5, 21]: 6124 and 5895 and 5335 and 5300; Luminescence, Raw Data (LUM) [5, 22]: 6960 and 7005 and 6427 and 6079; Luminescence, Raw Data (LUM) [5, 23]: 5660 and 5387 and 5152 and 5142; Luminescence, Raw Data (LUM) [5, 24]: 5734 and 5920 and 6125 and 5475; Luminescence, Raw Data (LUM) [5, 25]: 6593 and 6264 and 5955 and 5731; Luminescence, Raw Data (LUM) [5, 26]: 5936 and 5810 and 4992 and 5316; Luminescence, Raw Data (LUM) [5, 27]: 6498 and 6064 and 6232 and 5788; Luminescence, Raw Data (LUM) [5, 28]: 4358 and 4452 and 3565 and 4254; Luminescence, Raw Data (LUM) [5, 29]: 5848 and 6030 and 5487 and 5693; Luminescence, Raw Data (LUM) [5, 30]: 5593 and 5845 and 6001 and 5417 |
